Measurements published in US11279707B2, “NEK inhibitors and methods of use” (DANA-FARBER CANCER INSTITUTE, INC., priority 2017, dated 2022).

Tests used:
Format in all cases: biochemical
MERTK = biological target: T1, MERTK (Homo sapiens, UniProt Q12866); assay: kinase inhibition, MERTK
T1 sequence (Q12866 21-999): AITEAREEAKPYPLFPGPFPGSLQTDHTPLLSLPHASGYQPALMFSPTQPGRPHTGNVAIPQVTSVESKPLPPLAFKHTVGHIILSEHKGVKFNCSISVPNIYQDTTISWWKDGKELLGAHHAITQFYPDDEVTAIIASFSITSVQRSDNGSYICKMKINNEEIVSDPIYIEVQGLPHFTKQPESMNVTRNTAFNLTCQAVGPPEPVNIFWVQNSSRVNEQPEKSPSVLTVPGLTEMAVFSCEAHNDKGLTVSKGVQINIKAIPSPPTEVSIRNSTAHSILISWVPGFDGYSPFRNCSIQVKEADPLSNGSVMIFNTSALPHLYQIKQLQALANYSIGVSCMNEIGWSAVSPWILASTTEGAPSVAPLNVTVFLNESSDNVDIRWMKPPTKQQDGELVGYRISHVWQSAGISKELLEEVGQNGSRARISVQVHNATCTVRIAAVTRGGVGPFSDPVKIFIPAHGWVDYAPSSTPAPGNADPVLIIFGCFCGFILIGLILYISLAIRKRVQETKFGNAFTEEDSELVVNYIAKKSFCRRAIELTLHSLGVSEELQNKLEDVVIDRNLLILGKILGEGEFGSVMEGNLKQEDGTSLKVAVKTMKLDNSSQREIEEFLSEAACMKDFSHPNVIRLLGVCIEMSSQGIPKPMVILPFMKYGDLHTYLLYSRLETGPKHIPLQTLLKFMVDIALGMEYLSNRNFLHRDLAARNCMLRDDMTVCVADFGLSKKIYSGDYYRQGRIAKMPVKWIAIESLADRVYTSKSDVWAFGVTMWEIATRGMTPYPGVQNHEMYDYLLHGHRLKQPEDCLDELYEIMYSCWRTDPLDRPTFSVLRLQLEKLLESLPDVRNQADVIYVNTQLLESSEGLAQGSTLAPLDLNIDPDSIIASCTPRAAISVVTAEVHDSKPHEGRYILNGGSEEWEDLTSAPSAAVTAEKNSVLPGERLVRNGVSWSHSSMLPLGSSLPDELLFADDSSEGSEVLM

NEK7 = NEK7 (Homo sapiens, UniProt Q8TDX7); assay: kinase inhibition, NEK7
DMPK = biological target: T2, DMPK (Homo sapiens, UniProt Q09013); assay: kinase inhibition, DMPK
T2 sequence (Q09013 1-629): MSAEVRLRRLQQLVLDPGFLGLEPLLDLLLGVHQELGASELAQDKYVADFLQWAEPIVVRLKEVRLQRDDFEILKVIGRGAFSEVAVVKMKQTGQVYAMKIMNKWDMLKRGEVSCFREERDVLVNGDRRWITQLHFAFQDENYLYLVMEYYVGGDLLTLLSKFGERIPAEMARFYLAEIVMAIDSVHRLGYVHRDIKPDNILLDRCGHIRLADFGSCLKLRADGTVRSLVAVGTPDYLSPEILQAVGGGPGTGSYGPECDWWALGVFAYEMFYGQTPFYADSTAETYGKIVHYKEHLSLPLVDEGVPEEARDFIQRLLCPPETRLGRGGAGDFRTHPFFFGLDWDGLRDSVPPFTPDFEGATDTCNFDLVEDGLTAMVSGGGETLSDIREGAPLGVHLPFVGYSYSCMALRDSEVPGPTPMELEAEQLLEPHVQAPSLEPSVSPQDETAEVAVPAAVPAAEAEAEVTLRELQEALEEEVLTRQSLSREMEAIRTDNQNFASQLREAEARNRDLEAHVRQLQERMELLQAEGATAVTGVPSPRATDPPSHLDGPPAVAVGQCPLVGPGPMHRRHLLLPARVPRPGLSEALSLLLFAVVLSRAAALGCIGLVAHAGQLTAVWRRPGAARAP

NEK2 = biological target: T3, NEK2 (Homo sapiens, UniProt P51955); assay: kinase inhibition, NEK2
T3 sequence (P51955 1-445): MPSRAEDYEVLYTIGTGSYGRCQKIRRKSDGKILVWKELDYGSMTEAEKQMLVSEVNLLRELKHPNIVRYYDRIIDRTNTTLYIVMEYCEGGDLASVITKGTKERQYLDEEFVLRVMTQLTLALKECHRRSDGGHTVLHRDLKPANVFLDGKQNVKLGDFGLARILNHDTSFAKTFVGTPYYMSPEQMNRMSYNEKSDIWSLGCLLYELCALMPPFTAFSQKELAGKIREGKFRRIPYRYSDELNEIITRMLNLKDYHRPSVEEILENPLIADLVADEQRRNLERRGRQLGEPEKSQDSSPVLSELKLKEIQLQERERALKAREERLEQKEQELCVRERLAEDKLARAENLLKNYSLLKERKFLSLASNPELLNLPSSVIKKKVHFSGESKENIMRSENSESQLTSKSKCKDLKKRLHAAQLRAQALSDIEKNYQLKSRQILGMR

NEK7, sequence (Q8TDX7 whole entry, species assumed): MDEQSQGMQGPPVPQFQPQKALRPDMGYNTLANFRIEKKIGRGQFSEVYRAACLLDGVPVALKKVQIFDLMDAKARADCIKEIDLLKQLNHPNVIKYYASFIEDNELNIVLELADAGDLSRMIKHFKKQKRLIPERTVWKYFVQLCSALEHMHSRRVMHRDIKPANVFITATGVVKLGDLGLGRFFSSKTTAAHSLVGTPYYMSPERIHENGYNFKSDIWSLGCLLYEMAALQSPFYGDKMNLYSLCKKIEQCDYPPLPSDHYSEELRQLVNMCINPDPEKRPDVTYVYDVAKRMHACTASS

SMILES | IC50 (MERTK) [nM] | IC50 (NEK7) [nM] | IC50 (DMPK) [nM] | IC50 (NEK2) [nM]
CN1CCN(c2ccc(Nc3ncc4c(n3)n3c(cc5ccccc53)c(=O)n4C)cc2)CC1 [Compound I-1] | 250 to 1000 | 250 to 1000 | 50 to 250 | ≤ 50
COc1cc(N2CCC(O)CC2)ccc1Nc1ncc2c(n1)n1c(cc3ccccc31)c(=O)n2C [Compound I-2] | ≥ 5000 | 50 to 250 | ≥ 5000 | 50 to 250
COc1cc(N2CCN(C)CC2)ccc1Nc1ncc2c(n1)n1c(cc3ccccc31)c(=O)n2C [Compound I-3] | ≥ 5000 | 50 to 250 | ≥ 5000 | 50 to 250
COc1cc(C(=O)N2CCC(N3CCN(C)CC3)CC2)ccc1Nc1ncc2c(n1)n1c(cc3ccccc31)c(=O)n2C [Compound I-4] | ≥ 5000 | 1000 to 5000 | 250 to 1000 | 50 to 250
CN1CCN(c2ccc(Nc3ncc4c(n3)n3c(cc5ccccc53)c(=O)n4C)cc2C(F)(F)F)CC1 [Compound I-5] | 1000 to 5000 | 1000 to 5000 | ≥ 5000 | 50 to 250
COc1cc(C2CCN(C)CC2)ccc1Nc1ncc2c(n1)n1c(cc3ccccc31)c(=O)n2C [Compound I-6] | ≥ 5000 | 50 to 250 | 250 to 1000 | ≤ 50
